# Reference: US6770635B1, “Method for medicating the inflammatory controlling system and adverse inflammatory reactions and for making compounds for treating the pathology of adverse inflammatory reactions” (Pharos Pharmaceuticals, priority 1995, dated 2004)
# Experiments:
# [1] = stability of BD2K1 in water (deuterium oxide), 500 MHz NMR; type: physicochemical; details: for After One Week (share of ingredient in the solution by NMR) / Initially % (share of ingredient in the solution by NMR): BD2K1 in deuterium oxide, room temperature about 27° C.
# Experimental: A sample of BD2K1 made according to Example 1. Five mcg of the sample was dissolved in one ml of deuterium oxide and the solution was stored in a tightly capped screw capped tube maintained at room temperature which is about 27° C. Deuterium was used as the water source because it facilitates the NMR determinations of chemical configuration. The solution sample was scanned by 500 MHz NMR initially and after one week.
# [2] = stabilizing effect of glucose added to BD2K1-deuterium oxide mixtures, NMR; type: physicochemical; details: for level at which di-β-glucosamine equilibrates: 20% or more glucose in the mixture, in water, first week; for percent of total composition in the stationary equilibrium: 95% BD2K1 sample in water without glucose, one week
# Experimental: This experiment measures the stabilizing effect of glucose when added to the BD2K1 -deuterium oxide mixtures at room temperature. Various amounts of α-D-glucose were added to the similar starting mixtures in Example 3 and the NMRs were recorded to determine the percent changes of the total composition as a function of time.
# [3] = storage of BD2K1 in a desiccated container; type: physicochemical; details: room temperature
# [4] = general statements on stability at alkaline pH and in body fluids; type: physicochemical
# [5] = tested on: mice immunologically sensitive to a specific water soluble chemical; experiment: Inflammatory Controlling System (ICS) assay; type: in vivo
# Experimental: An example of BD2K1 being synthesized in another area than in the intestine is seen in a mouse study which was conducted involving the Inflammatory Controlling System (ICS). ICS assay is done in mice immunologically sensitive to a specific water soluble chemical. When these mice are challenged intravenously with a sublethal dose of the chemical, below the toxicity level for non-sensitive mice, they immediately respond with an adverse immune reaction. Result is an acute pancreatitis, shock and death. […] The assay involves glucose controls which are administrated intraperitoneally at three times. The first is early (i.e., 3 hours) before the antigen challenge. The second is one hour before the challenge and the third is at zero hour (i.e., when the challenge is done). […] However, for the case where glucose was injected at the zero hour and one hour before the challenge there was no effect.
# A further study in mice was conducted to test the effect of glucose in mice by various routes of administration in the ICS assay test. The glucose was administrated by four different routes: intraperitoneal, intravenous, subcutaneous and oral.
# [6] = tolerability statements for BD2K (topical, parenteral use); type: in vivo
smiles,measurement,setting,value
"OC[C@H]1O[C@@H](N[C@@H]2O[C@H](CO)[C@@H](O)[C@H](O)[C@H]2O)[C@H](O)[C@@H](O)[C@@H]1O [BD2K1, di-Beta-D-glucopyranosylamine]",After One Week (share of ingredient in the solution by NMR),[1],62%
same,Initially % (share of ingredient in the solution by NMR),[1],92%
same,reduction of BD2K1 to the starting material glucose,[1]; by adding water,33%
same,level at which di-β-glucosamine equilibrates,[2],80%
same,level at which di-β-glucosamine equilibrates,[2]; listed as di-β-glucosamine,about 80%
same,time the equilibrium level is kept,"[2]; 20% or more glucose, sealed container",at least five years
same,percent of total composition in the stationary equilibrium,[2],62%
same,decomposition on storage,[3],does not decompose
same,stability in body fluids,[4]; body fluids,not very stable
same,stability at high alkaline pH,[4]; high alkaline pH,extremely stable
same,protection against the acute pancreatitis,[5]; BD2K1 controls of the route study,good protection
same,protection from death on challenge,"[5]; sensitive mice, intravenous sublethal antigen challenge",protects these sensitive mice from death
same,irritation,[6]; applied topically,without any irritation
same,IgE levels in patient sera,[6]; patient sera,without elevating IgE levels
same,toxicity,[6]; used parentally,no indication of toxicity
c1cnccn1 [pyrazine],After One Week (share of ingredient in the solution by NMR),[1],1%
same,Initially % (share of ingredient in the solution by NMR),[1],1%
same,percent of total composition in the stationary equilibrium,[2],less than 1%
OC[C@H]1O[C@@H](O)[C@H](O)[C@@H](O)[C@@H]1O [β-glucose],After One Week (share of ingredient in the solution by NMR),[1],18%
same,Initially % (share of ingredient in the solution by NMR),[1],0%
OC[C@H]1O[C@H](O)[C@H](O)[C@@H](O)[C@@H]1O [α-glucose],After One Week (share of ingredient in the solution by NMR),[1],10%
same,Initially % (share of ingredient in the solution by NMR),[1],0%
